Assay results taken from patent US20220088102A1, “CROTON LECHLERI COMPOSITIONS AND THEIR USE IN THE TREATMENT OF CYSTIC FIBROSIS” (priority 2020, published 2022).
In brackets after ≈: the same amount, converted by molar mass. Read-outs that look alike come from different tables or passages of the source. Each block holds one compound with its values, some of them ahead of it.

Columns and labels:
[1] = Log P analysis (partition coefficient, water and n-Octanol)
Text: (§1) All reference to skin includes references to epithelial skin and epithelial layer of the lungs, nose, mouth and throat. IVPT is a flux measurement that is common to those skilled in the art to evaluate topical drugs inclusive to topical delivery to the lungs, nose, mouth and throat.
Log P is an assessment of a molecule's lipophilicity, indicating how readily an analyte can partition between aqueous and organic phases. […] To reach high systemic levels, a topical drug must be permeable enough, which is defined as lipophilic enough, to partition into the lipid bilayer of the skin, but, not so lipophilic that once it is in the skin bilayer it will stay sequestered there. Lipophilicity plays a major role in determining where drugs are distributed within the body after absorption into tissues and, as a consequence, in how rapidly they are metabolized and excreted.
The Log P value is a constant defined in the following manner: Log P=log 10 (Partition Coefficient) Partition Coefficient, P=[organic]/[aqueous] Where [ ] indicates the concentration of solute in the organic and aqueous partition. […] Although log P is a constant, its value is dependent on the choice of the organic partitioning solvent and, to a lesser degree, on the conditions of measurement.

[2] = In vitro Permeation Test (IVPT), Franz diffusion cell, Strat-M membranes
Text: as §1

DNA of the cells = conditions: Chen 1994, cited from earlier work; for healing effects: in the Ecuadorian sap
[3] = test system: methicillin-resistant Staphylococcus aureus (MRSA) strains; assay: In vitro MIC and MBC assay, strain panel (Example 3); assay type: cell-based; conditions: for MIC: MRSA (Table 13); for MBC (% relative to amount in AB-101) / MIC (% relative to amount in AB-101): MRSA; for MIC (% relative to amount in AB-101): 50% = 10 μg/mL taspine
Text: (§2) Measures included the minimum inhibitory concentration (MIC) which is the lowest concentration of AB-101 that prevents visible growth of the bacterium or pathogen, and minimum bactericidal concentration (MBC) which is the lowest concentration of an antibacterial agent required to kill a bacterium.

[4] = test system: methicillin-susceptible Staphylococcus aureus (MSSA) strains; assay: as above; assay type: cell-based; conditions: for MIC (% relative to amount in AB-101): 50% = 10 μg/mL taspine
Text: as §2

wound healing = conditions: in vivo in rats, Pieters et al 1995; cited from earlier work
[5] = component of AB-101, 100%, Batch 0
[6] = component of AB-101, 100%, Batch 1
[7] = component of AB-101, 100%, Batch 2
[8] = component of AB-101, 100%, Batch X
[9] = component of AB-101 Lyophilized & Resuspended, Batch 0
[10] = component of AB-101 Lyophilized & Resuspended, Batch 1
[11] = component of AB-101 Lyophilized & Resuspended, Batch 2
[12] = component of AB-101 Lyophilized & Resuspended, Batch X
[13] = component permeating from AB-101 100% Lot 1
[14] = component permeating from AB-101 100% Lot X
[15] = strain ATCC 29213, QC control (Table 13)
[16] = strain CDC 461, MupirocinS, MSSA (Table 13)
[17] = strain CDC 463, MupirocinS, MSSA (Table 13)
[18] = highest concentration tested 50% relative to AB-101 = 10 μg/mL taspine
[19] = strain 1674606, MupirocinR, MSSA
[20] = strain 1674608, MupirocinR, MSSA
[21] = strain CDC 461, MupirocinS, MSSA
[22] = strain CDC 462, MupirocinS, MSSA
[23] = strain CDC 463, MupirocinS, MSSA
[24] = strain CDC 464, MupirocinS, MSSA
[25] = strain CDC 484, MupirocinS, MSSA
[26] = strain CDC 485, MupirocinS, MSSA

Compound: Oc1cc(O)c2c(c1)O[C@H](c1cc(O)c(O)c(O)c1)[C@H](O)C2 [Epigallocatcchin]
- LogP [1, 5]: −0.79
- LogP [1, 6]: 0.27
- LogP [1, 7]: 0.86
- LogP [1, 8]: 1.82
- LogP [1, 9]: 1.20
- LogP [1, 10]: −0.11
- LogP [1, 11]: −1.71
- LogP [1, 12]: −0.55

Compound: Oc1cc(O)c2c(c1)O[C@H](c1cc(O)c(O)c(O)c1)[C@H](O)C2 [Epigallocatechin, epigallocatechin]
- Flux (J) [2, 13]: 503.51 ug/cm^2/hr
- Flux (J) [2, 14]: 57.09 ug/cm^2/hr
- effect on cell proliferation (DNA of the cells): slightly stimulating to cell proliferation

Compound: Oc1cc(O)c2c(c1)O[C@H](c1cc(O)c(O)c(O)c1)[C@@H](O)C2 [Gallocatechin, gallocatechin]
- Flux (J) [2, 13]: 18.25 ug/cm^2/hr
- Flux (J) [2, 14]: 4.33 ug/cm^2/hr
- effect on cell proliferation (DNA of the cells): slightly stimulating to cell proliferation

- MIC ([3]; strain CDC 480, MupirocinS): 0.032 to 0.064 ng/mL
- MIC ([3]; strain CDC 481, MupirocinS): 0.016 to 0.032 ng/mL
- MIC ([3]; strain CDC 482, MupirocinS): 0.008 to 0.032 ng/mL
- MIC ([4]; strain 1674606, MupirocinR, MSSA (Table 13)): 0.002 to 0.008 ng/mL
- MIC ([4]; strain 1674608, MupirocinR, MSSA (Table 13)): 0.002 to 0.004 ng/mL
- MIC [4, 15]: 0.001 to 0.002 ng/mL
- MIC [4, 16]: 0.004 to 0.008 ng/mL
- MIC [4, 17]: 0.008 to 0.016 ng/mL
- MIC ([4]; strain CDC 485, MupirocinS, MSSA (Table 13)): 0.002 to 0.004 ng/mL
Compound: COc1cccc(OC)c1C(=O)N[C@@H]1C(=O)N2[C@@H]1SC(C)(C)[C@@H]2C(=O)O [Methicillin]

- MIC ([3]; strain CDC 227, MupirocinS): ≤0.00025 to 0.0005 ng/mL
- MIC ([4]; Staphylococcus aureus, MSSA, strain 1674606, MupirocinR, MSSA, read-out: MIC): > 256000 ng/mL
- MIC ([4]; Staphylococcus aureus, MSSA, strain 1674608, MupirocinR, MSSA, read-out: MIC): > 256000 ng/mL
- MIC ([4]; Staphylococcus aureus, MSSA, strain CDC 463, MupirocinS, MSSA, read-out: MIC): 250 to 500 ng/mL (≈ 499 to 999 nM)
- MIC ([4]; Staphylococcus aureus, MSSA, strain CDC 484, MupirocinS, MSSA, read-out: MIC): ≤ 250 ng/mL
- MIC ([4]; Staphylococcus aureus, MSSA, strain CDC 485, MupirocinS, MSSA, read-out: MIC): ≤ 250 ng/mL
- MIC [4, 15]: ≤0.00025 to 0.0005 ng/mL
- MIC [4, 16]: ≤0.00025 to 0.001 ng/mL
- MIC [4, 17]: ≤0.00025 to 0.0005 ng/mL
Compound: C/C(=C\C(=O)OCCCCCCCCC(=O)O)C[C@@H]1OC[C@H](C[C@@H]2O[C@H]2[C@@H](C)[C@H](C)O)[C@@H](O)[C@H]1O [Mupirocin]

Compound: COc1ccc2c(=O)oc3c(OC)cc(CCN(C)C)c4c(=O)oc1c2c34 [Taspin]
- LogP [1, 5]: −1.15
- LogP [1, 6]: −1.76
- LogP [1, 7]: −0.90
- LogP [1, 8]: −0.31
- LogP [1, 9]: −1.06
- LogP [1, 10]: −0.94
- LogP [1, 11]: −1.71
- LogP [1, 12]: −0.07

Compound: COc1ccc2c(=O)oc3c(OC)cc(CCN(C)C)c4c(=O)oc1c2c34 [Taspine, taspine]
- activity as evaluated by this invitro test method (MIC, MBC) [3, 18]: does not have activity
- MBC (% relative to amount in AB-101) ([3]; strain 1674607, MupirocinR): >50 % relative to amount in AB-101
- MIC (% relative to amount in AB-101) ([3]; strain 1674607, MupirocinR): >50 % relative to amount in AB-101
- MBC (% relative to amount in AB-101) ([3]; strain 1674611, MupirocinR): >50 % relative to amount in AB-101
- MIC (% relative to amount in AB-101) ([3]; strain 1674611, MupirocinR): >50 % relative to amount in AB-101
- MBC (% relative to amount in AB-101) ([3]; strain CDC 218, MupirocinR): >50 % relative to amount in AB-101
- MIC (% relative to amount in AB-101) ([3]; strain CDC 218, MupirocinR): >50 % relative to amount in AB-101
- MBC (% relative to amount in AB-101) ([3]; strain CDC 220, MupirocinS): >50 % relative to amount in AB-101
- MIC (% relative to amount in AB-101) ([3]; strain CDC 220, MupirocinS): >50 % relative to amount in AB-101
- MBC (% relative to amount in AB-101) ([3]; strain CDC 224, MupirocinR): >50 % relative to amount in AB-101
- MIC (% relative to amount in AB-101) ([3]; strain CDC 224, MupirocinR): >50 % relative to amount in AB-101
- MBC (% relative to amount in AB-101) ([3]; strain CDC 227, MupirocinS): >50 % relative to amount in AB-101
- MIC (% relative to amount in AB-101) ([3]; strain CDC 227, MupirocinS): >50 % relative to amount in AB-101
- MBC (% relative to amount in AB-101) ([3]; strain CDC 228, MupirocinR): >50 % relative to amount in AB-101
- MIC (% relative to amount in AB-101) ([3]; strain CDC 228, MupirocinR): >50 % relative to amount in AB-101
- MBC (% relative to amount in AB-101) ([3]; strain CDC 480, MupirocinS): >50 % relative to amount in AB-101
- MIC (% relative to amount in AB-101) ([3]; strain CDC 480, MupirocinS): >50 % relative to amount in AB-101
- MBC (% relative to amount in AB-101) ([3]; strain CDC 481, MupirocinS): >50 % relative to amount in AB-101
- MIC (% relative to amount in AB-101) ([3]; strain CDC 481, MupirocinS): >50 % relative to amount in AB-101
- MBC (% relative to amount in AB-101) ([3]; strain CDC 482, MupirocinS): >50 % relative to amount in AB-101
- MIC (% relative to amount in AB-101) ([3]; strain CDC 482, MupirocinS): >50 % relative to amount in AB-101
- MBC (% relative to amount in AB-101) ([3]; strain CDC 483, MupirocinS): >50 % relative to amount in AB-101
- MIC (% relative to amount in AB-101) ([3]; strain CDC 483, MupirocinS): >50 % relative to amount in AB-101
- activity as evaluated by this invitro test method (MIC, MBC) [4, 18]: does not have activity
- MBC (% relative to amount in AB-101) [4, 19]: >50 % relative to amount in AB-101
- MIC (% relative to amount in AB-101) [4, 19]: >50 % relative to amount in AB-101
- MBC (% relative to amount in AB-101) [4, 20]: >50 % relative to amount in AB-101
- MIC (% relative to amount in AB-101) [4, 20]: >50 % relative to amount in AB-101
- MBC (% relative to amount in AB-101) ([4]; strain ATCC 29213, QC control): >50 % relative to amount in AB-101
- MIC (% relative to amount in AB-101) ([4]; strain ATCC 29213, QC control): >50 % relative to amount in AB-101
- MBC (% relative to amount in AB-101) [4, 21]: >50 % relative to amount in AB-101
- MIC (% relative to amount in AB-101) [4, 21]: >50 % relative to amount in AB-101
- MBC (% relative to amount in AB-101) [4, 22]: >50 % relative to amount in AB-101
- MIC (% relative to amount in AB-101) [4, 22]: >50 % relative to amount in AB-101
- MBC (% relative to amount in AB-101) [4, 23]: >50 % relative to amount in AB-101
- MIC (% relative to amount in AB-101) [4, 23]: >50 % relative to amount in AB-101
- MBC (% relative to amount in AB-101) [4, 24]: >50 % relative to amount in AB-101
- MIC (% relative to amount in AB-101) [4, 24]: >50 % relative to amount in AB-101
- MBC (% relative to amount in AB-101) [4, 25]: >50 % relative to amount in AB-101
- MIC (% relative to amount in AB-101) [4, 25]: >50 % relative to amount in AB-101
- MBC (% relative to amount in AB-101) [4, 26]: >50 % relative to amount in AB-101
- MIC (% relative to amount in AB-101) [4, 26]: >50 % relative to amount in AB-101
- healing effects (DNA of the cells): showed little healing effects

Compound: COc1ccc([C@H]2Oc3c(OC)cc(CCCO)cc3[C@@H]2CO)cc1OC [dimethylcedrusin, 3′,4-0-dimethylcedrusin]
- healing effects (DNA of the cells): showed little healing effects
- wound healing activity (wound healing): improved wound healing in vivo

Compound: catechin
- effect on cell proliferation (DNA of the cells): showed little effect

Compound: epicatechin
- effect on cell proliferation (DNA of the cells): showed little effect
